# Values of other authors, collected in US7087219B2, “Toothpaste containing anticancer agents” (priority 2003, dated 2006).
# Columns and labels:
# [1] = according to publications and patents (Burzynski et al. 1986)
# [2] = general statement; marketed as a food supplement
structure (smiles),measurement,setting,value
"O=C1CCC(NC(=O)Cc2ccccc2)C(=O)N1 (centres unmarked) [3-N-phenylacetylamino-2,6-piperidinedione]",efficacy in treating cancers in clinical trials,[1],effective in treating a variety of cancers in clinical trials
same,toxicity,[2],completely non-toxic
